The values that follow come from paper PMC8972196, “A Set of Experimentally Validated Decoys for the Human CC Chemokine Receptor 7 (CCR7) Obtained by Virtual Screening” (Frontiers in Pharmacology, 2022).

Molecules are shown by their SMILES. Where two headings read alike, the source gives them in different places.

The target in this assay is T1, human CCR7 (Homo sapiens, UniProt P32248).
T1 construct: expressed in transfected cells
T1 sequence (P32248 25-378): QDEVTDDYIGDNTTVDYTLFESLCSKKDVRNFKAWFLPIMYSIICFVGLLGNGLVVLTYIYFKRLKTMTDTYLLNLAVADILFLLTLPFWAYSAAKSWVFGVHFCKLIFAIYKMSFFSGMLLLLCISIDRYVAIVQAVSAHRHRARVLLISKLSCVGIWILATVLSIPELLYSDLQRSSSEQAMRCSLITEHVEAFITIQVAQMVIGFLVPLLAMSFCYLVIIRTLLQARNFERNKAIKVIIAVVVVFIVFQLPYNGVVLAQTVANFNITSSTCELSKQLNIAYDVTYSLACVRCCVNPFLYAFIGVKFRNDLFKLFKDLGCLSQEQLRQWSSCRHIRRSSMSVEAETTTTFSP
The assay is described as follows: CCL19-induced calcium mobilization assay, U87.CD4 cells expressing CCR7. The class given is cell-based. The note with it: for Decoy – 0 Active – 1: classification of tested compounds as decoy or active. The essentials:
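U87.CD4 cells stably expressing human CCR7, CXCR2 or CCR5 were seeded at 20,000 cells/well and incubated overnight at 37°C and 5% CO2. Cells were then incubated for 45 min at room temperature in the dark before calcium responses were recorded. CCR7 responses were induced with CCL19 and CXCR2 responses with CXCL8.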
For orientation: Calcium flux is commonly read through the fluorescence of an indicator in the cells.

The mark [1] stands for this setting: CCL19-induced calcium signaling, read-out: IC50 [μM] block CCL19 induced calcium signaling.

In the case of `CNC(=O)c1cccc(NC(=O)N[C@H](C)Cc2ccc(C)s2)c1C` [C115, CNC(=O)c1cccc(NC(=O)N[C@H](C)Cc2ccc(C)s2)c1C], the 50% inhibitory concentration (IC50) is greater than 50 µM and the “Decoy – 0 Active – 1” value is listed as 0.
In the case of `C[C@@H]1CCN(Cc2ccccc2)C[C@H]1Nc1nccc(C(N)=O)c1[N+](=O)[O-]` [C116, C[C@@H]1CC[N@H+](Cc2ccccc2)C[C@H]1Nc1nccc(C(N)=O)c1[N+](=O)[O-]], the “Decoy – 0 Active – 1” value is 0. The IC50 under setting [1] was greater than 50 µM.
In the same order, the values of `C[C@@H]1CCN(Cc2ccccc2)C[C@H]1Nc1ccc([N+](=O)[O-])c(C(N)=O)c1` [C117, C[C@@H]1CC[N@H+](Cc2ccccc2)C[C@H]1Nc1ccc([N+](=O)[O-])c(C(N)=O)c1] are 0 and greater than 50 µM.
The corresponding values for `C[C@@H](CNC(=O)N[C@H]1CCC[C@@H](S(C)(=O)=O)C1)c1cccs1` [C118, C[C@@H](CNC(=O)N[C@H]1CCC[C@@H](S(C)(=O)=O)C1)c1cccs1] are 0 and greater than 50 µM.
As for `C[C@@H](CNC(=O)Nc1ccnc(C(=O)N(C)C)c1)c1cccs1` [C119, C[C@@H](CNC(=O)Nc1ccnc(C(=O)N(C)C)c1)c1cccs1], the “Decoy – 0 Active – 1” value is reported as 0. Besides, under setting [1], the IC50 was greater than 50 µM.
For `Cc1ccc(N[C@H]2CS(=O)(=O)C[C@H]2OC(=O)c2ccccc2)cc1` [C120, Cc1ccc(N[C@H]2CS(=O)(=O)C[C@H]2OC(=O)c2ccccc2)cc1], the “Decoy – 0 Active – 1” value worked out at 0. Moreover, the IC50 under setting [1] was greater than 50 µM.
The corresponding values for `Cc1cccc(N[C@H]2CS(=O)(=O)C[C@H]2OC(=O)c2ccccc2)c1` [C121, Cc1cccc(N[C@H]2CS(=O)(=O)C[C@H]2OC(=O)c2ccccc2)c1] are 0 and greater than 50 µM.
In the same order, the values of `O=S1(=O)C[C@H](Nc2ccc(Cl)cc2)[C@H](NCc2ccccc2)C1` [C122, O=S1(=O)C[C@@H](NCc2ccccc2)[C@@H](Nc2ccc(Cl)cc2)C1] are 0 and greater than 50 µM.
For `O=C(O[C@@H]1CS(=O)(=O)C[C@@H]1Nc1ccccc1)c1ccccc1` [C123, O=C(O[C@@H]1CS(=O)(=O)C[C@@H]1Nc1ccccc1)c1ccccc1], the “Decoy – 0 Active – 1” value is on record as 0. Further, the IC50 under setting [1] was greater than 50 µM.
For `CN(Cc1ccccc1N[C@H]1CCN(C)C1=O)C(=O)c1cccs1` [C124, CN(Cc1ccccc1N[C@H]1CCN(C)C1=O)C(=O)c1cccs1], the “Decoy – 0 Active – 1” value is given as 0. The IC50 under setting [1] is greater than 50 µM.
In the same order, the values of `CCOC(=O)[C@H](NCC(=O)Nc1cccc(C(=O)N(C)C)c1)C(C)C` [C125, CCOC(=O)[C@H]([NH2+]CC(=O)Nc1cccc(C(=O)N(C)C)c1)C(C)C] are 0 and greater than 50 µM.
On to `CNC(=O)c1cccc(NC(=O)NCC(C)(C)c2cccs2)c1C` [C126, CNC(=O)c1cccc(NC(=O)NCC(C)(C)c2cccs2)c1C], for which the “Decoy – 0 Active – 1” value worked out at 0. Under setting [1], the IC50 is greater than 50 µM.
As to `CN(C)C(=O)c1cccc(NC(=O)NCCC2=CCCCC2)c1` [C127, CN(C)C(=O)c1cccc(NC(=O)NCCC2=CCCCC2)c1], the “Decoy – 0 Active – 1” value is reported as 0. The 50% inhibitory concentration (IC50) under setting [1] was greater than 50 µM.
In the same order, the values of `CN(C)C(=O)Cn1cccc(NC(=O)CCC(C)(C)c2ccccc2)c1=O` [C128, CN(C)C(=O)Cn1cccc(NC(=O)CCC(C)(C)c2ccccc2)c1=O] are 0 and greater than 50 µM.
In the same order, the values of `CN(C)C(=O)c1cc(NC(=O)NCC(C)(C)c2ccccc2)ccn1` [C129, CN(C)C(=O)c1cc(NC(=O)NCC(C)(C)c2ccccc2)ccn1] are 0 and greater than 50 µM.
In the case of `C[S@+]([O-])c1cccc(NC(=O)NCC2(c3cccc(F)c3)CC2)c1` [C130, C[S@](=O)c1cccc(NC(=O)NCC2(c3cccc(F)c3)CC2)c1], the “Decoy – 0 Active – 1” value is 0. Moreover, under setting [1], the half-inhibitory concentration (IC50) was greater than 50 µM.
The corresponding values for `Cc1cccc2c(=O)n(CCC(=O)N[C@@H](c3ccccc3)C(C)C)cnc12` [C131, Cc1cccc2c(=O)n(CCC(=O)N[C@@H](c3ccccc3)C(C)C)cnc12] are 0 and greater than 50 µM.
The corresponding values for `CC[C@@H](NC(=O)CCn1ccccc1=O)c1cc(F)ccc1F` [C132, CC[C@@H](NC(=O)CCn1ccccc1=O)c1cc(F)ccc1F] are 0 and greater than 50 µM.
In the same order, the values of `C[C@H](c1ccccc1)N(C)CC(=O)Nc1cccc(C(=O)N(C)C)c1` [C133, C[C@H](c1ccccc1)[N@@H+](C)CC(=O)Nc1cccc(C(=O)N(C)C)c1] are 0 and greater than 50 µM.
For `COC[C@@H](NC1=NS(=O)(=O)c2ccccc21)c1ccc(C)o1` [C134, COC[C@@H](NC1=NS(=O)(=O)c2ccccc21)c1ccc(C)o1], the “Decoy – 0 Active – 1” value worked out at 0. Besides, under setting [1], the IC50 is greater than 50 µM.
In the same order, the values of `COc1ccc([N+](=O)[O-])c(C(=O)N[C@@H](c2ncccc2C)C(C)C)c1` [C135, COc1ccc([N+](=O)[O-])c(C(=O)N[C@@H](c2ncccc2C)C(C)C)c1] are 0 and greater than 50 µM.
On to `Cc1cccc([C@H](NC(=O)c2cc(-c3ccccc3F)n[nH]2)C2CC2)n1` [C136, Cc1cccc([C@H](NC(=O)c2cc(-c3ccccc3F)n[nH]2)C2CC2)n1], for which the “Decoy – 0 Active – 1” value is reported as 0. Further, the IC50 under setting [1] is greater than 50 µM.
On to `CC[C@@H](NS(=O)(=O)NCc1ccccc1)c1cc(C)ccn1` [C137, CC[C@@H](NS(=O)(=O)NCc1ccccc1)c1cc(C)ccn1], for which the “Decoy – 0 Active – 1” value is 0. In addition, the half-inhibitory concentration (IC50) under setting [1] is greater than 50 µM.
The corresponding values for `Cc1cccnc1[C@H](N[C@H]1CCN(CC(F)(F)F)C1=O)C(C)C` [C138, Cc1cccnc1[C@H]([NH2+][C@H]1CCN(CC(F)(F)F)C1=O)C(C)C] are 0 and greater than 50 µM.
In the case of `Cc1ocnc1C(=O)N[C@@H]1CC(=O)N(Cc2ccc(F)cc2)C1` [C139, Cc1ocnc1C(=O)N[C@@H]1CC(=O)N(Cc2ccc(F)cc2)C1], the “Decoy – 0 Active – 1” value was determined as 0. Also, the half-maximal inhibitory concentration (IC50) under setting [1] is greater than 50 µM.
Turning to `C/N=C(\NCCC(=O)N(C)C)N[C@H](C)c1ccc(C)o1` [C140, C/[NH+]=C(\NCCC(=O)N(C)C)N[C@H](C)c1ccc(C)o1], the “Decoy – 0 Active – 1” value turned out to be 0. For the same compound, the half-inhibitory concentration (IC50) under setting [1] is greater than 50 µM.
In the same order, the values of `COCCN(Cc1cccs1)C(=O)N[C@@H](C)c1ccc(C)o1` [C141, COCCN(Cc1cccs1)C(=O)N[C@@H](C)c1ccc(C)o1] are 0 and greater than 50 µM.
As to `CC(C)Cc1cc(C(=O)N(Cc2ccccc2Cl)C(C)C)nc(=O)[nH]1` [C142, CC(C)Cc1cc(C(=O)N(Cc2ccccc2Cl)C(C)C)nc(=O)[nH]1], the “Decoy – 0 Active – 1” value worked out at 0. In addition, the IC50 under setting [1] is greater than 50 µM.
In the same order, the values of `Cc1cnn(C[C@@H]2CCCN2C(=O)[C@H](C(C)C)n2cncn2)c1` [C143, Cc1cnn(C[C@@H]2CCCN2C(=O)[C@H](C(C)C)n2cncn2)c1] are 0 and greater than 50 µM.
For the compound `CC(=O)N[C@@H](Cc1ccccc1)C(=O)N[C@H](C)c1ccccc1` [C144, CC(=O)N[C@@H](Cc1ccccc1)C(=O)N[C@H](C)c1ccccc1], the “Decoy – 0 Active – 1” value turned out to be 0. Also, the IC50 under setting [1] was greater than 50 µM.
Regarding `O=C1C[C@H](NC(=O)CCn2cccn2)CN1` [C145, O=C1C[C@H](NC(=O)CCn2cccn2)CN1], the “Decoy – 0 Active – 1” value was 0. For the same compound, under setting [1], the half-inhibitory concentration (IC50) is greater than 50 µM.
In the same order, the values of `CC(C)[C@@H](Nc1nccc(CCC(F)(F)F)n1)c1nccn1C` [C146, CC(C)[C@@H](Nc1nccc(CCC(F)(F)F)n1)c1nccn1C] are 0 and greater than 50 µM.
The corresponding values for `O=C(N[C@@H](c1nccs1)C1CC1)c1cc(N2CCOCC2)ccn1` [C147, O=C(N[C@@H](c1nccs1)C1CC1)c1cc(N2CCOCC2)cc[nH+]1] are 0 and greater than 50 µM.
In the same order, the values of `O=S1(=O)N=C(NCc2ccco2)c2ccccc21` [C148, O=S1(=O)N=C(NCc2ccco2)c2ccccc21] are 0 and greater than 50 µM.
Regarding `O=S1(=O)N=C(NCc2ccccn2)c2ccccc21` [C149, O=S1(=O)N=C(NCc2ccccn2)c2ccccc21], the “Decoy – 0 Active – 1” value is 0. Moreover, the half-inhibitory concentration (IC50) under setting [1] is greater than 50 µM.
Regarding `O=S1(=O)N=C(NCCN2CCCC2)C(NCCN2CCCC2)=N1` [C150, O=S1(=O)N=C(NCC[NH+]2CCCC2)C(NCC[NH+]2CCCC2)=N1], the “Decoy – 0 Active – 1” value is reported as 0. In addition, the IC50 under setting [1] was greater than 50 µM.
For `O=C1NC[C@H](C(=O)N(Cc2ccco2)C2CC2)N1` [C151, O=C1NC[C@H](C(=O)N(Cc2ccco2)C2CC2)N1], the “Decoy – 0 Active – 1” value was 0. The half-inhibitory concentration (IC50) under setting [1] was greater than 50 µM.
In the same order, the values of `CCn1nccc1[C@H]1NC(=O)CC[C@H]1NC(=O)c1cc(C)n(C)n1` [C152, CCn1nccc1[C@H]1NC(=O)CC[C@H]1NC(=O)c1cc(C)n(C)n1] are 0 and greater than 50 µM.
The corresponding values for `Cn1ccnc1[C@H](NC1=NS(=O)(=O)c2ccccc21)c1cccc(F)c1` [C153, Cn1ccnc1[C@H](NC1=NS(=O)(=O)c2ccccc21)c1cccc(F)c1] are 0 and greater than 50 µM.
The corresponding values for `O=C([C@@H]1C[C@@H]1c1ccco1)N1CCC[C@H]1Cc1ccc(F)cc1` [C154, O=C([C@@H]1C[C@@H]1c1ccco1)N1CCC[C@H]1Cc1ccc(F)cc1] are 0 and greater than 50 µM.

A word on the IC50: it is the concentration needed to halve the response being measured.
